In PubChem BioAssay (NCI) one finds GI50 and TGI data, which are given here for twelve molecules.

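Values below derive from 48-hour exposures of cells grown in 96-well plates, with endpoints linearly interpolated between the two concentrations bracketing the appropriate inhibition level. Here, GI50 denotes the concentration required for 50% inhibition of growth. The concentration for full growth arrest is given as TGI.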

Test systems include SK-MEL-28 melanoma; EKVX NSCLC; OVCAR-5 ovarian; OVCAR-8 ovarian; U251 CNS; SF-295 CNS; CAKI-1 renal; NCI-H23 lung; SK-MEL-2 melanoma; DU-145 prostate.
Common to all, as to experiment: growth of human tumour cells (NCI), 48 h

In the case of `N#C[S-].[La+3].c1ccc(-c2ccccn2)nc1.c1ccc(-c2ccccn2)nc1.c1ccc(-c2ccccn2)nc1`, the GI50 with SK-MEL-28 melanoma is 30.9 µM; in the experiment on EKVX NSCLC, 22 µM; in the experiment on OVCAR-5 ovarian, 15 µM; with OVCAR-8 ovarian it was 25.9 µM; with U251 CNS, 20.1 µM; in the experiment with SF-295 CNS, 12.3 µM. Besides, the GI50 in the experiment with CAKI-1 renal is 12.9 µM; in the experiment with NCI-H23 lung, 29.1 µM; in the experiment with SK-MEL-2 melanoma, 21.5 µM. Besides, the TGI is more than 100 µM in the experiment with SK-MEL-28 melanoma; more than 100 µM in the experiment with EKVX NSCLC; 55.1 µM in the experiment with OVCAR-5 ovarian; more than 100 µM in the experiment on OVCAR-8 ovarian; more than 100 µM in the experiment with U251 CNS; 71.3 µM with SF-295 CNS. Besides, the TGI in the experiment on CAKI-1 renal was 60.8 µM; in the experiment on NCI-H23 lung, more than 100 µM; with SK-MEL-2 melanoma, 53.6 µM.
Consider `Clc1cc(N/N=C(\c2ccccc2)c2ccccn2)ncn1`, for which the TGI with SK-MEL-28 melanoma, in the experiment with EKVX NSCLC, with OVCAR-5 ovarian, in the experiment with DU-145 prostate, in the experiment on U251 CNS and in the experiment with SF-295 CNS was more than 100 µM in each case. Also, the TGI was 0.235 µM with CAKI-1 renal, more than 100 µM in the experiment with NCI-H23 lung and more than 100 µM in the experiment with SK-MEL-2 melanoma.
As for `Brc1ccc2[nH]c3c(C4=NCCC4)nccc3c2c1`, the TGI was more than 100 µM in the experiment with SK-MEL-28 melanoma; 57.3 µM in the experiment on EKVX NSCLC; more than 29.7 µM in the experiment on OVCAR-5 ovarian; more than 100 µM in the experiment on OVCAR-8 ovarian; more than 38.8 µM in the experiment on U251 CNS; more than 36.7 µM with SF-295 CNS. The TGI with CAKI-1 renal was more than 53.1 µM; in the experiment on NCI-H23 lung it was more than 79.7 µM; in the experiment on SK-MEL-2 melanoma, more than 53.3 µM.
Take `CC1OC(OC2C(O)CC(OC3C(O)CC(OC4CCC5(C)C(CCC6C5CCC5(C)C(C7=CC(=O)OC7)C(O)CC65O)C4)OC3C)OC2C)CC(O)C1O` (configuration not stated): the TGI with SK-MEL-28 melanoma amounted to 5.86 µM; in the experiment with EKVX NSCLC, 0.63 µM; with OVCAR-5 ovarian it was 5.62 µM; in the experiment on OVCAR-8 ovarian it was 0.813 µM; in the experiment with DU-145 prostate, 0.236 µM; in the experiment with U251 CNS, 1.31 µM. The TGI is 0.809 µM with SF-295 CNS, 0.396 µM in the experiment on CAKI-1 renal, 0.313 µM in the experiment with NCI-H23 lung and 1.55 µM in the experiment with SK-MEL-2 melanoma.
For the molecule `Cc1ccc(S(=O)(=O)OC[C@@]2(C)CC[C@]3(C)CC[C@]4(C)C(=C3C2)C=C[C@@H]2[C@@]3(C)CCCNC(C)(C)[C@@H]3CC[C@]24C)cc1`, the GI50 is 1.78 µM with SK-MEL-28 melanoma; 1.7 µM in the experiment on EKVX NSCLC; 1.77 µM with OVCAR-5 ovarian; 1.81 µM with DU-145 prostate; 1.66 µM in the experiment on U251 CNS; 1.78 µM in the experiment with SF-295 CNS. Also, the figures for the GI50 with CAKI-1 renal, in the experiment with NCI-H23 lung and with SK-MEL-2 melanoma were 1.61 µM, 1.82 µM and 1.88 µM, respectively. For the same molecule, the TGI with SK-MEL-28 melanoma is 3.26 µM; in the experiment with EKVX NSCLC it was 3.29 µM; with OVCAR-5 ovarian, 3.21 µM; in the experiment on DU-145 prostate, 3.4 µM; with U251 CNS, 3.17 µM; in the experiment with SF-295 CNS, 3.29 µM. Further, the results for the TGI in the experiment with CAKI-1 renal, with NCI-H23 lung and in the experiment on SK-MEL-2 melanoma were 3.06 µM, 3.42 µM and 3.52 µM, respectively.
As to `CCOC(=O)c1ccc(N(CCOS(C)(=O)=O)CCOS(C)(=O)=O)cc1`, the TGI is more than 100 µM in the experiment with SK-MEL-28 melanoma; more than 100 µM in the experiment with EKVX NSCLC; more than 100 µM with OVCAR-5 ovarian; more than 100 µM in the experiment on OVCAR-8 ovarian; 47 µM in the experiment on DU-145 prostate; more than 100 µM in the experiment with U251 CNS. Besides, the TGI in the experiment with SF-295 CNS was more than 100 µM; in the experiment on CAKI-1 renal it was 29.1 µM; with NCI-H23 lung, more than 100 µM; with SK-MEL-2 melanoma, more than 100 µM.
As for `Oc1c(Br)cc2c(c1Br)-c1c(c(O)c3c4c1=NCCC=4C=N3)NCC2`, the TGI with SK-MEL-28 melanoma was found to be 32.5 µM; in the experiment on EKVX NSCLC it was 46.1 µM; in the experiment with OVCAR-5 ovarian it was 40.2 µM; with OVCAR-8 ovarian, 28.5 µM; in the experiment with U251 CNS, 24.5 µM; in the experiment with SF-295 CNS, 19.5 µM. The TGI stood at 42.2 µM with CAKI-1 renal, 30.3 µM with NCI-H23 lung and 26.4 µM in the experiment with SK-MEL-2 melanoma.
Regarding `CCCCCCCCCCCC1N=C(N)N=C(N)N1c1cccc(Br)c1` (configuration not stated), the GI50 in the experiment on EKVX NSCLC is 1.05 µM; in the experiment with OVCAR-5 ovarian, 0.811 µM; in the experiment on OVCAR-8 ovarian, 1.73 µM; with DU-145 prostate, 1.16 µM; in the experiment with U251 CNS it was 0.631 µM; in the experiment on SF-295 CNS, 1.16 µM. Besides, the values for the GI50 in the experiment on CAKI-1 renal, with NCI-H23 lung and in the experiment on SK-MEL-2 melanoma were 1.8 µM, 1.18 µM and 1.55 µM, respectively. The TGI with EKVX NSCLC stood at 2.44 µM; in the experiment with OVCAR-5 ovarian it was 2.22 µM; in the experiment with OVCAR-8 ovarian it was 3.31 µM; in the experiment on DU-145 prostate it was 2.42 µM; in the experiment with U251 CNS it was 1.98 µM; in the experiment with SF-295 CNS, 19.4 µM. Moreover, the TGI is 4.12 µM in the experiment with CAKI-1 renal, 2.69 µM in the experiment on NCI-H23 lung and 2.99 µM with SK-MEL-2 melanoma.
Turning to `O=c1cc(-c2cccc(OC(F)(F)F)c2)[nH]c2ccc(N3CCCC3)cc12`, the GI50 in the experiment on EKVX NSCLC was 0.0493 µM. The TGI was more than 100 µM in the experiment on EKVX NSCLC; more than 100 µM in the experiment with OVCAR-5 ovarian; 0.177 µM in the experiment with DU-145 prostate; 16.5 µM in the experiment with U251 CNS; 0.00048 µM with SF-295 CNS; more than 100 µM in the experiment on CAKI-1 renal. Moreover, the TGI in the experiment on NCI-H23 lung was found to be 0.0502 µM; with SK-MEL-2 melanoma, 0.000848 µM.
As for `Cc1c2cc[n+](Cc3ccc(I)cc3)cc2c(C)c2c1[nH]c1ccccc12`, the TGI was 11.7 µM with SK-MEL-28 melanoma; 7.85 µM in the experiment on EKVX NSCLC; 11.3 µM in the experiment with OVCAR-5 ovarian; 11.8 µM with OVCAR-8 ovarian; 8.59 µM in the experiment on U251 CNS; more than 9.98 µM with SF-295 CNS. The TGI with CAKI-1 renal was determined as 3.51 µM; in the experiment on NCI-H23 lung, 9.13 µM; in the experiment on SK-MEL-2 melanoma, 1.64 µM.
For `[CH3][Sn]([CH3])([CH3])[S]C(=S)N1CCOCC1`, the GI50 in the experiment with SK-MEL-28 melanoma was 3.49 µM; in the experiment on EKVX NSCLC, 4.96 µM; in the experiment on OVCAR-5 ovarian, 2.5 µM; in the experiment with OVCAR-8 ovarian, 3.69 µM; in the experiment with U251 CNS it was 2.82 µM; with SF-295 CNS, 3.51 µM. Also, the values for the GI50 with CAKI-1 renal, with NCI-H23 lung and in the experiment on SK-MEL-2 melanoma were 4 µM, 0.345 µM and 1.51 µM, respectively. Also, the TGI with SK-MEL-28 melanoma is 33.6 µM; in the experiment on EKVX NSCLC, more than 100 µM; in the experiment on OVCAR-5 ovarian, more than 28.2 µM; in the experiment on OVCAR-8 ovarian it was more than 85.4 µM; with U251 CNS, 11.4 µM; in the experiment on SF-295 CNS it was 13.2 µM. Besides, the TGI in the experiment on CAKI-1 renal was more than 46.4 µM; with NCI-H23 lung it was 4.94 µM; in the experiment on SK-MEL-2 melanoma, 4.75 µM.
On to `O=C(Nc1cccc(-n2ccc3c(NC(=O)c4ccccc4)ncnc32)c1)Nc1ccc(Cl)c(C(F)(F)F)c1`, for which the GI50 in the experiment with SK-MEL-28 melanoma is 2.75 µM; in the experiment with EKVX NSCLC, 2.71 µM; with OVCAR-5 ovarian, 2.38 µM; in the experiment on OVCAR-8 ovarian it was 1.95 µM; in the experiment on DU-145 prostate it was 4.52 µM; with U251 CNS, 2.09 µM. Further, the GI50 was 1.43 µM in the experiment on SF-295 CNS, 2.04 µM in the experiment on CAKI-1 renal, 1.97 µM in the experiment with NCI-H23 lung and 1.18 µM in the experiment with SK-MEL-2 melanoma. Besides, the TGI is 9.44 µM with SK-MEL-28 melanoma; 9.84 µM with EKVX NSCLC; 9.69 µM in the experiment with OVCAR-5 ovarian; 6.67 µM in the experiment on OVCAR-8 ovarian; 11.3 µM in the experiment with DU-145 prostate; 8.39 µM in the experiment on U251 CNS. Also, the TGI was 7.24 µM in the experiment with SF-295 CNS, 10.9 µM in the experiment with CAKI-1 renal, 18.7 µM in the experiment on NCI-H23 lung and 3.64 µM in the experiment on SK-MEL-2 melanoma.
